{"source": "patent US20200024573A1", "about": "“CHEMICAL DIFFERENTIATION OF PLURIPOTENT STEM CELLS INTO RETINAL EPITHELIAL CELLS” (International Stem Cell Corporation, priority 2014, published 2020)", "test_system": "retinal epithelial progenitor cells", "assay": "Derivation of retinal pigmented epithelium from hPSCs in 3D culture", "format": "cell-based, human", "details": "hPSC 3D cultures, N2/B27 medium containing Chir99021 (3 μM) for 15 days, after 12 days SB431542, IWR-1, DMH-1, Y-27632", "experimental": "hPSCs cells growing under feeder-free culture conditions were dissociated with Accutase and grown in suspension in Ultra-low 6 well plates, with N2/B27 medium (DMEM/F12 with GlutaMAX, 1× N2/B27 Supplement) plus SB431542 (10 μM), IWR-1 (3 μM), DMH-1 (2 μM), and Y-27632 (10 μM) for 12 days (FIGS. 1A-1C) to generate retinal epithelial progenitor cells. After 12 days, to differentiate the retinal epithelial progenitor cells into retinal pigmented epithelium into RPEs, hPSC 3D cultures were switch into N2/B27 medium containing Chir99021 (3 μM) for 15 days (FIGS. 1A-1C and 2). […] Derivation of RPEs was confirmed by immunohistochemistry for RPE specific protein expression (MITF, ZO-1, Best-1 and Melanosome) and by RT-PCR gene analysis for RPE specific gene markers ([…], BEST1 OTX2, RLBP1, RPE65 and SERINF1) (FIGS. 3 and 4). FACS analysis was performed to determine the percentage of cells positive for RPE specific proteins MITF, Mel and BEST (FIGS. 5A-5C).", "data": [{"smiles": "Cc1c[nH]c(-c2cnc(NCCNc3ccc(C#N)cn3)nc2-c2ccc(Cl)cc2Cl)n1", "note": "[Chir99021]", "values": [{"measurement": "maturation/pigmentation of retinal epithelial progenitor cells", "value": "promotes the maturation/pigmentation of retinal epithelial progenitor cells"}]}]}
